Measurements as given in article PMC10451377, “Rationally Designed Pyrimidine Compounds: Promising Novel Antibiotics for the Treatment of Staphylococcus aureus-Associated Bovine Mastitis” (Antibiotics, 2023).
In brackets after ≈: the same amount, converted by molar mass. Read-outs that look alike come from different tables or passages of the source.

Legend:
[1] = tested on: guanine riboswitch-lacZ fusion construct (xpt-lacZ); test: Riboswitch regulation assay (lacZ-gene reporter); type: cell-based, B. subtilis
Excerpt: The novel pyrimidine compounds, especially PC206, display specificity and potency against some staphylococci but not the other bacterial genus (Table 1 and Table 2). Because they are structurally derived from PC1 and PC2, these novel antibiotic candidates are expected to have the same mode of action. […] To verify this hypothesis, a strain of B. subtilis with a guanine riboswitch-lacZ fusion construct (named xpt-lacZ) integrated in its chromosome was exposed to these new antimicrobials. […] Therefore, it is an adequate reporter species. The metabolization of substrate ONPG into colored ONP was normalized by the bacterial suspension absorbance at 600 nm (Miller units) and relativized to the untreated condition.
β-galactosidase gene expression in the presence of the new pyrimidine analogs was studied, using an xpt-lacZ transcriptional fusion construct integrated in the genome of B. subtilis as previously described. Briefly, cultures were grown for 5 h at 35 °C in CAMHB, from an initial optical density of 0.05 at 600 nm (OD600), and then diluted 1:20 and in the presence of different concentrations of the compounds tested. Cultures were centrifuged for 10 min at 13,100 rpm, the supernatant was discarded, and pellets were suspended in a Z-buffer (NaH2PO4 40 mM, Na2HPO4 60 mM, MgSO4 1 mM, KCl 10 mM). Cultures OD600 were measured, and bacteria were then lysed with lysozyme (1 mg/mL) and β-mercaptoethanol 50 mM for 30 min. Lysates were centrifuged for 10 min at 13,100 rpm, and supernatants were incubated for 5 min at 30 °C with the substrate orthonitrophenyl-β-galactoside (ONPG; Sigma Aldrich). Reactions were stopped with Na2CO3 1M, supernatants OD420 were measured, and Miller units were calculated. A decrease in β-galactosidase activity indicated binding of the test compound to the riboswitch. Guanine and oxacillin were used as […] controls, respectively. The formula to measure Miller units is as follows: Millerunits=1000×OD420/t·v·OD600
Here, t represents the time of incubation with ONPG, and v represents the volume of the reaction.

[2] = tested on: Staphylococcus aureus CMRSA-2; test: Broth microdilution MIC; type: cell-based
Excerpt: (§1) Reference strains for this study (S. aureus ATCC 29213, ATCC 29740 [bovine mastitis strain Newbould], S. epidermidis ATCC 12228, E. coli ATCC 35695, E. faecalis ATCC 29212) were obtained from the American Type Culture Collection (ATCC, Rockville, MD). S. aureus strains CMRSA-10 and CMRSA-2 were obtained from the Laboratoire de santé publique du Québec (LSPQ, Sainte-Anne-de-Bellevue, QC, Canada) and are Canadian CA-MRSA USA-300 and HA-MRSA USA-100 clones, respectively. The strain E. coli imp4213 (lptD), used as a control in MIC assays, is a derivative of E. coli ATCC 35695 (E. coli MC4100) with an increased membrane permeability. […] Other MRSA strains used in this study are clinical isolates of human origin obtained from the microbiology laboratory of the Centre Hospitalier Universitaire de Sherbrooke (CHUS, Sherbrooke, QC, Canada). Bovine mastitis strains (S. aureus, S. chromogenes, S. haemolyticus, S. hominis, S. simulans) were obtained from the Canadian Bovine Mastitis and Milk Quality Research Network (CBRQMN, St-Hyacinthe, QC, Canada). Among these strains, S. aureus 2117 is a high producer of biofilm and was used in the biofilm-eradication assay. S. epidermidis isolates were provided by Centre de Recherche en Infectiologie (CRI) de Québec (Québec, QC, Canada).

[3] = tested on: Staphylococcus aureus CMRSA-10; test: Broth microdilution MIC; type: cell-based
Excerpt: as §1

[4] = tested on: Escherichia coli ATCC 35695; test: Broth microdilution MIC; settings: ATCC35695, read-out: Broth Microdilution MIC
[5] = tested on: all tested bacterial strains, including non-staphylococci strains; test: Broth microdilution MIC, summary over all strains tested; settings: read-out: MIC against all tested bacterial strains
[6] = tested on: Staphylococcus aureus ATCC 29213; test: Broth microdilution MIC; settings: ATCC29213, read-out: Broth Microdilution MIC
MTT assay [7] = type: cell-based; settings: human, HepG2 cells
[8] = tested on: Bacillus subtilis xpt-lacZ; test: Broth microdilution MIC; type: cell-based; settings: B. subtilis xpt-lacZ, read-out: Broth Microdilution MIC
[9] = tested on: Staphylococcus epidermidis ATCC 12228; test: Broth microdilution MIC; settings: ATCC12228, read-out: Broth Microdilution MIC
LDH release assay [10] = type: cell-based; settings: human, HepG2 cells
[11] = tested on: HepG2 and MAC-T cells versus S. aureus Newbould; test: Selectivity ratios over both assays and both cell lines; type: cell-based; settings: over MTT and LDH assays
Method: All CC50 values are reported in Table 3, and plots are provided in the Supplementary Information (Supplementary Figure S2). PC371 had no effect on cell viability even at the highest concentrations tested (CC50 > 600 μM) in both the MTT and the LDH assay and for the two cell lines tested. For the three other compounds, in both cell lines and both assays, a correlation was observed between the effect on cell viability and the length of their aliphatic chain. CC50 of PC372 (5 carbons) was higher than that of PC206 (6 carbons), and both were higher than that of PC383 (10 carbons). Indeed, for the MAC-T cells in the MTT assay, the values were >600 μM (PC372), 317 μM (PC206), and 13.5 μM (PC383). Again, for the MAC-T cell line, the values for the LDH assay were >600 μM (PC372 and PC206) and 23.6 μM (PC383). Similar results were obtained with the HepG2 cells. […] Overall, the MAC-T cells tolerated better exposure to the compounds than the HepG2 cells. To assess the selectivity of the PC2 analogs towards S. aureus, selectivity ratios were calculated. These ratios were obtained by dividing the cytotoxicity CC50 values of an analog by its MIC against S. aureus Newbould. It was not possible to calculate the selectivity ratio for PC371 as its CC50 and MIC values exceeded the maximum values tested.

LDH release assay [12] = type: cell-based; settings: bovine, MAC-T cells, 24 h
[13] = tested on: Escherichia coli ΔlptD4213; test: microbe, parasite or virus in culture; type: cell-based; settings: read-out: Broth Microdilution MIC
Excerpt: as §1

MTT assay [14] = type: cell-based; settings: bovine, MAC-T cells, 24 h
[15] = tested on: Enterococcus faecalis ATCC 29212; test: Broth microdilution MIC; settings: ATCC29212, read-out: Broth Microdilution MIC
[16] = tested on: S. aureus guanine riboswitch; design: method as in PMID 20421948; settings: cited from earlier work
[17] = design: method as in PMID 20421948; settings: presence of water and oxygen; cited from earlier work
[18] = tested on: all reference staphylococci strains tested, including MRSA; test: Broth microdilution MIC, summary over reference staphylococci; settings: Staphylococcus aureus, read-out: MIC ranging, against all reference staphylococci strains tested
S. aureus = tested on: S. aureus; design: method as in PMID 20421948; settings: compared with PC1; cited from earlier work
[19] = CMRSA2, S. aureus CMRSA-2, read-out: Broth Microdilution MIC
[20] = CMRSA10, S. aureus CMRSA-10, read-out: Broth Microdilution MIC

Question: For `CCCCCCCCCCNc1cc(N)nc(N)n1` [PC383], which “Effect on Miller units” value ([1]; highest evaluated dose 2 µg/mL) is on record?
Answer: did not impact Miller units’ expression

Question: And the MIC [2, 19]?
Answer: 4 µg/mL (≈ 15.1 µM)

Question: And the MIC [3, 20]?
Answer: 4 µg/mL (≈ 15.1 µM)

Question: What about the MIC [4] of the same molecule?
Answer: 16 µg/mL (≈ 60.3 µM)

Question: And the MIC [5]?
Answer: 4 to 16 µg/mL (≈ 15.1 to 60.3 µM)

Question: And the MIC [6]?
Answer: 4 µg/mL (≈ 15.1 µM)

Question: What about the CC50 at 24 h (MTT assay [7]) of the same molecule?
Answer: 11.7 ± 5.8 µM

Question: What about the MIC [8] of the same molecule?
Answer: 4 µg/mL (≈ 15.1 µM)

Question: What about the MIC [9] of the same molecule?
Answer: 4 µg/mL (≈ 15.1 µM)

Question: What about the CC50 at 24 h (LDH release assay [10]) of the same molecule?
Answer: 6.6 ± 0.7 µM

Question: And the “Selectivity ratio (CC50/MIC against S. aureus Newbould), overall” value [11]?
Answer: ~1

Question: What about the CC50 at 24 h (LDH release assay [12]) of the same molecule?
Answer: 23.6 ± 8.4 µM

Question: What about the MIC [13] of the same molecule?
Answer: 8 µg/mL (≈ 30.1 µM)

Question: What about the CC50 at 24 h (MTT assay [14]) of the same molecule?
Answer: 13.5 ± 1.5 µM

Question: What about the MIC [15] of the same molecule?
Answer: 4 µg/mL (≈ 15.1 µM)

Question: What does the source list for `Nc1nc(N)c(N)c(O)n1` [PC1, 2,5,6-triaminopyrimidine-4-one, reference compound]?
Answer: MIC ([2]; CMRSA2, S. aureus CMRSA-2, in the presence of 1.5 mM DTT, read-out: Broth Microdilution MIC): 1 µg/mL; MIC ([3]; CMRSA10, S. aureus CMRSA-10, in the presence of 1.5 mM DTT, read-out: Broth Microdilution MIC): 2 µg/mL; MIC ([8]; in the presence of 1.5 mM DTT): > 128 µg/mL; Binding to the guanine riboswitch [16]: binding the guanine riboswitch of S. aureus; Chemical stability [17]: chemically unstable

Question: Which “Miller units remaining, relative to the untreated condition” value ([1]; 64 µg/mL) does the source give for `CCCCCNc1cc(N)nc(N)n1` [PC372] here?
Answer: 50%

Question: What about the MIC [2, 19] of the same molecule?
Answer: 16 µg/mL (≈ 81.9 µM)

Question: And the MIC [3, 20]?
Answer: 8 µg/mL (≈ 41 µM)

Question: And the MIC [4]?
Answer: > 128 µg/mL

Question: And the MIC [6]?
Answer: 16 µg/mL (≈ 81.9 µM)

Question: What about the CC50 at 24 h (MTT assay [7]) of the same molecule?
Answer: 341 ± 32 µM

Question: And the MIC [8]?
Answer: 128 µg/mL (≈ 656 µM)

Question: And the MIC [9]?
Answer: 8 µg/mL (≈ 41 µM)

Question: What about the CC50 at 24 h (LDH release assay [10]) of the same molecule?
Answer: 394 ± 15 µM

Question: What about the “Selectivity ratio (CC50/MIC against S. aureus Newbould), overall” value [11] of the same molecule?
Answer: above 3.9

Question: What about the CC50 at 24 h (LDH release assay [12]) of the same molecule?
Answer: > 600 µM

Question: What about the MIC [18] of the same molecule?
Answer: 8 to 16 µg/mL (≈ 41 to 81.9 µM)

Question: And the MIC [13]?
Answer: > 128 µg/mL

Question: What about the CC50 at 24 h (MTT assay [14]) of the same molecule?
Answer: > 600 µM

Question: What about the MIC [15] of the same molecule?
Answer: > 128 µg/mL

Question: Which “Antimicrobial activity against S. aureus” value (S. aureus) does the source give for `Nc1cc(O)nc(N)n1` [PC2] here?
Answer: much lower antimicrobial activity

Question: What about the “Binding to the guanine riboswitch” value [16] of the same molecule?
Answer: bind the riboswitch ex vivo

Question: What about the Chemical stability [17] of the same molecule?
Answer: more chemically stable
